# Where two headings read alike, the source gives them in different places.
# How the values were obtained:
# adult mouse DRG neurons = assay: Axonal degeneration index in dissociated adult mouse DRG neurons; conditions: 72 h
# Method: After 4 days in vitro (DIV), at least 30% of medium was changed, and 10 μM AraC (cytosine β-D-arabino furanoside) was added to suppress nonneuronal growth. […] Neurons were fixed with 4% paraformaldehyde (PFA), washed with PBS, permeabilized with PBS–0.01% Triton X-100 for 15 min, and blocked with PBS–10% FBS for 1 hour before being stained overnight at 4°C with neurofilament antibody. Following PBS washes, secondary antibody (goat anti-chicken Alexa Fluor 488) was applied for 2 hours at room temperature (R.T.). Following additional PBS washes, coverslips were mounted with Fluoromount-G.
# Images of random fields of dissociated adult DRG neurons, immunostained with antineurofilament or anti-TUBB3 antibodies, were captured using a 20× objective lens (Olympus IX81) and a Sensicam QE monochrome camera (Cooke Corporation). Degeneration masks were generated on the basis of the method described by Gerdts et al. ([66]). Axonal degeneration was quantified by measuring the total axonal area and fragmented axonal area in the same field, using degeneration masks as shown in fig. […] Images were processed in Fiji using global autothresholding, binarization, and the particle analyzer module to detect fragments (20 to 10,000 pixels), as previously described ([17]). The degeneration index was calculated as the ratio of fragmented axonal area to total axonal area.
# HeLa cells [1] = assay: HeLa cell viability (PrestoBlue) assay, 72 h; type: cell-based, human
# Method: The human HeLa cell line was tested negative for mycoplasma contamination. HeLa cells were grown in RPMI 1640 medium supplemented with penicillin/streptomycin (100 μg/ml) and 10% FBS and maintained in a humidified incubator at 37°C and 5% CO2.
# Cell viability was analyzed using the colorimetric PrestoBlue assay. Cells were seeded in 96-well microplates at a density of 7500 cells per well, allowed to adhere for 24 hours, and treated for 72 hours with either DMSO or drugs at indicated concentrations. PrestoBlue (10 μl) was then added to each well, followed by a 30-min incubation. Fluorescence was measured using a FLUOstar Optima microplate reader (excitation, 544 nm; emission, 580 nm; BMG Labtech).
# HeLa cells [2] = test system: HeLa cells; design: method as in PMID 32781579; conditions: dividing cells, 72-hour treatment; read-out: GI50 (50% of growth inhibition); cited from earlier work
# NAMPT = NAMPT (Homo sapiens, UniProt P43490); assay: AS-MS binding assay, NAMPT; conditions: 10 μM compound, 3 μM NAMPT
# Method: To this end, Carba1 or FK866 (positive control of NAMPT binding) was first incubated with NAMPT or carbonic anhydrase (CA; negative control). Protein-ligand complexes were separated from the unbound compounds by size exclusion chromatography (SEC). To quantify the protein-bound fraction, the complexes were then dissociated using reverse-phase chromatography, and the compounds were analyzed and quantified by mass spectrometry.
# AS-MS was used to assess compound binding to NAMPT. AS-MS was performed by Edelris SAS (www.edelris.com/), which has developed the commercial AS-MS service “EDEN platform,” based on ([71]). Conditions consisted of protein (NAMPT and CA) at 3 μM and compounds (Carba1 and FK866) at 10 μM dissolved in corporate buffer.
# [3] = test system: rat embryonic DRG neurons; assay: Primary rat sensory neuron/Schwann cell culture exposed to Cis (myelination); type: cell-based; conditions: Cis 10 μg/ml; Carba1 tested at 1, 5, 10 μM
# Method: These experiments, conducted by Neuro-Sys company (www.neuro-sys.com/) involved primary SNs and SCs cultured as previously described ([67]). On DIV 19, cultures were pretreated with Carba1 (1 to 10 μM) for 1 hour before exposure to Cis (10 μg/ml) for 24 hours in presence of Carba1. On DIV 20, the medium containing Cis was replaced with fresh medium and Carba1 for another 24 hours, ending the culture on DIV 21. Cells were fixed with ethanol/acetic acid (95%/5%) for 5 min, permeabilized, and blocked with PBS containing 0.1% saponin and 10% FBS. Cells were incubated with monoclonal anti-MBP (1:1000) and polyclonal anti-neurofilament (1:500) antibodies for 2 hours, followed by CF 488 A goat anti-mouse (1:400, Sigma-Aldrich) and Alexa Fluor 568 goat anti-rabbit (1:400, Molecular Probe) for 1 hour at R.T. Hoechst was used to stain nuclei.
# Thirty images per well were acquired at ×20 magnification using ImageXpress (Molecular Devices) with identical acquisition settings, and analysis was automated with MetaXpress software. Key parameters measured included total neurite length (NF; in micrometers), total neurons (NF^+ cells), and myelination (MBP-NF overlap, in square micrometers).
# PTX-induced neuropathy = assay: Rat model of PTX-induced peripheral neuropathy (von Frey, serum NfL, IENFD); type: in vivo
# Method: Control animals received an equivalent volume of the vehicle (cremophor EL:ethanol, 1:1) diluted 1:4 in 0.9% NaCl.
# Carba1 was injected intraperitoneally six times (50 mg/kg) on days 0, 1, 2, 4, 7, and 9, resulting in a cumulative dose of 300 mg/kg (Fig. 2F). For each injection, Carba1 was injected intraperitoneally at 50 mg/kg on days 0, 1, 2, 4, 7, and 9, for a cumulative dose of 300 mg/kg, using a stock solution (150 mg/ml; cremophor EL:ethanol, 1:1) diluted to 50 mg/ml in 0.9% NaCl. Control animals for Carba1 received the same volume of the vehicle [cremophor EL:ethanol (1:1) diluted 1:3 in 0.9% NaCl]. […] To prevent cross-exposure through feces and urine, treatment groups were randomized by cage, with each cage housing three animals.
# Tactile allodynia, a common sensory disorder reported in animal models of CIPN ([56]), was assessed using an electronic von Frey test (Bioseb) ([68]). Rats were placed in plastic compartments on a wire floor and allowed to habituate for 15 min. […] The maximum force (in grams) causing withdrawal was recorded automatically. The average of two measurements, not differing by more than 10 g, was used as the nociceptive threshold ([68]). Rats were habituated to the compartments 3 days before the first injection, and the experimenter was blinded to treatment groups.
# Blood samples were collected on day 15 in vials with a clot activator, left at R.T. for up to 1 hour before centrifugation at 4100 rpm at 20°C for 10 min. Serum was then collected, aliquoted, and stored at −80°C until analysis. To reduce batch effects, serum samples were randomized on assay plates. NfL concentration was measured in the serum using commercial kits (Simple Plex Ella ProteinSimple, USA; Rat NfL Kit ProteinSimple) ([27]).
# Skin samples from both hind paws were fixed in 4% PFA overnight at 4°C, followed by sucrose cryoprotection (10, 20, and 30%) at 4°C overnight. After embedding in tissue freezing medium, the samples were at −80°C. Sections (20 μm) were cut using a cryostat at −17°C, washed with PBS for 5 min, and dried. The sections were blocked in PBS/0.2% Triton X-100/1%BSA for 1 hour and then incubated overnight at R.T. with anti-PGP9.5 antibody (1:400). After washing with PBS, sections were incubated with goat anti-rabbit Alexa Fluor488 secondary antibody for 2 hours, and the nuclei were stained with DAPI. Imaging was performed by acquiring 0.5 μm Z-stacks and exposure times for DAPI and fluorescein isothiocyanate set to 600 ms. Quantification followed the method described by Lauria et al. ([69]).
# [4] = rat serum, day 15, outliers removed
# NAMPT, sequence (P43490 whole entry, species assumed): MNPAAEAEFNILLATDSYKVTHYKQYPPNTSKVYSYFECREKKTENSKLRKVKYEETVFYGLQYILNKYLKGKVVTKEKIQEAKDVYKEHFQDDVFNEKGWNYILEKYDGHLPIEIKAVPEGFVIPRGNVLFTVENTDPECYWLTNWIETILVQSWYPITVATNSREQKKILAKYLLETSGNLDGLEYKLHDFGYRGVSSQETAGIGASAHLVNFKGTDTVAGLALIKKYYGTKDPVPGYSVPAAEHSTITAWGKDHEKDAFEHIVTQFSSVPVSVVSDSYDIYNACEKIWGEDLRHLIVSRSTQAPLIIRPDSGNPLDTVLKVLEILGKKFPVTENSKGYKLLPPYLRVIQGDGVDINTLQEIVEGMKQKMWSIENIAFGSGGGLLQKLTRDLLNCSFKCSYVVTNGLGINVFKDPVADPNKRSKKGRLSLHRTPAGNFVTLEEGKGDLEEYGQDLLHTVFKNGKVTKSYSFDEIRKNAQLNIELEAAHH
structure (smiles),measurement,setting,value
Cc1cc(-n2cccc2)c(C)c2c1[nH]c1ccc(Cl)cc12 [Compound 1],protection against PTX-induced axonal degeneration,adult mouse DRG neurons; 12 μM Carba1 cotreatment with 50 nM PTX,prevented neuronal degeneration
same,protection against Bort-induced neuronal fragmentation,adult mouse DRG neurons; 12 μM Carba1 cotreatment with 100 nM Bort,prevent neuronal fragmentation
same,protection against Cis-induced neuronal fragmentation,adult mouse DRG neurons; 12 μM Carba1 cotreatment with 10 μM Cis,prevent neuronal fragmentation
same,"axonal fragmentation / degeneration, agent alone","adult mouse DRG neurons; DIV 12 neurons, Carba1 12 μM, PTX 50 nM, Cis 10 μM, Bort 100 nM",did not show significant effects on neurite fragmentation
same,relief of FK866 cytotoxicity,"HeLa cells [1]; HeLa cells, coadministration with FK866",counteracted the toxic effect of FK866 in a dose-dependent manner
same,GI50,"HeLa cells [1]; Homo sapiens, HeLa, cell viability, compound alone, read-out: GI50",> 25 µM
same,GI50 FK866 with carbazole/GI50 FK866,"HeLa cells [1]; ratio at the highest noncytotoxic dose of carbazole analog, readout of NAMPT activation",2.6
same,GI50 PTX/GI50 PTX with carbazole,"HeLa cells [1]; ratio at the highest noncytotoxic dose of carbazole analog, synergy with PTX",2.5
same,GI50,HeLa cells [2],> 25 µM
same,binding to NAMPT (AS-MS),NAMPT,directly binds to NAMPT
same,concentration of maximal protective effect against Cis-induced demyelination,[3],5 µM
same,"IENFD, mean","PTX-induced neuropathy; rat hind paw biopsies, day 15",19.54 number/mm
same,"IENFD, median","PTX-induced neuropathy; rat hind paw biopsies, day 15",19.88 number/mm
same,"NfL, mean",PTX-induced neuropathy; [4],22.14 pg/mL
same,"NfL, median",PTX-induced neuropathy; [4],22.40 pg/mL
same,effect on PTX-induced tactile allodynia,"PTX-induced neuropathy; rat, Carba1 50 mg/kg i.p. x6 with PTX 5 mg/kg i.p. x4",prevents PTX-induced tactile allodynia
same,effect on PTX-induced intraepidermal nerve fiber degeneration,"PTX-induced neuropathy; rat, Carba1 cotreatment with PTX",prevented PTX-induced intraepidermal nerve fiber degeneration
same,"tactile allodynia (paw withdrawal threshold, electronic von Frey), agent alone","PTX-induced neuropathy; rat, i.p., PTX 5 mg/kg x4 or Carba1 50 mg/kg x6",not analgesic
same,"reduction of IENFD, agent alone","PTX-induced neuropathy; rat, vs controls",had no effect

# Reference: paper PMC12571071, “Preventing neuropathy and improving anticancer chemotherapy with a carbazole-based compound” (Science Advances, 2025)
